Test results published in patent US20260199323A1, “LIGAND COMPOUNDS FOR E3 UBIQUITIN LIGASE, PROTEIN DEGRADERS DEVELOPED ON BASIS OF LIGAND COMPOUNDS, AND USES THEREOF” (GLUETACS THERAPEUTICS (SHANGHAI) CO., LTD., priority 2021, published 2026).
Where two headings read alike, the source gives them in different places. One block for each compound: values may come before it.

Tests used:
[1] = tested on: MDA-MB-231; assay: CCK-8 tumor cell proliferation, MDA-MB-231; type: cell-based, Human; settings: Homo sapiens; Table 15, ALK inhibitor based; MDA-MB-231; read-out: IC50 inhibiting proliferation of tumor cells, MDA-MB-231
Procedure, shortened: (§1)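 Authenticated cells, kept at 37 °C and 5% CO2, were given compound a day after plating; doses spanned 10 levels in 5-fold decrements from 10 μM. IC50 values come from CCK-8 viability readings.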

[2] = tested on: NCI-H1975; assay: CCK-8 tumor cell proliferation, NCI-H1975; type: cell-based, Human; settings: for IC50: Homo sapiens, Table 15, ALK inhibitor based, NCI-H1975, read-out: IC50 inhibiting proliferation of tumor cells, NCI-H1975
Experimental: (§2) The tumor cells used herein were cultured in a cell culture medium listed in table 4 at 37° C. in an incubator with 5% CO2. Prior to experimentation, all cells used were correctly identified by STR profiling, and tested negative for mycoplasma through routine screenings.
(§3) IC50 values of the compounds of the present disclosure (including the compounds in Tables 1 and 3, and compounds of examples) were measured using the Meilun Cell Counting Kit-8 kit from Dalian Meilun Biotech Co., Ltd. Assay details are as follows: tumor cells were seeded in a 96-well plate at a density listed in Table 5. After 24 h, 100 μL of the inoculated cells were treated with 0.5 μL of the compounds of the present disclosure (including the compounds in Tables 1 and 3, and compounds of examples) at 10 different successively decreasing concentrations (starting at the highest concentration of 10 μM; 5-fold serial dilutions). After the cells were treated with the compounds of the present disclosure for a period of time, the cell viability detection reagent was added to the culture medium for cell viability assessment according to the instructions provided with the CCK-8 kit. […] The growth inhibition of the compounds of the present disclosure on cells was plotted by Prism Graphpad software, and the IC50 values of the compounds of the present disclosure were calculated therefrom.

[3] = tested on: PC-9; assay: CCK-8 tumor cell proliferation, PC-9; type: cell-based, Human; settings: Homo sapiens; Table 15, ALK inhibitor based; PC-9; read-out: IC50 inhibiting proliferation of tumor cells, PC-9
[4] = tested on: SR; assay: CCK-8 tumor cell proliferation, SR; type: cell-based, Human; settings: Homo sapiens; Table 15, ALK inhibitor based; SR; read-out: IC50 inhibiting proliferation of tumor cells, SR
Procedure, shortened: as §1

[5] = tested on: CCRF-CEM; assay: CCK-8 tumor cell proliferation, CCRF-CEM; type: cell-based, Human; set-up: IC50 for inhibiting the proliferation of tumor cells, CCRF-CEM: scale not given here; settings: for IC50: Homo sapiens, CCRF-CEM, read-out: IC50 inhibiting proliferation of tumor cells, CCRF-CEM
Procedure, shortened: as §1

[6] = tested on: Vcap; assay: CCK-8 tumor cell proliferation, Vcap; type: cell-based, Human; settings: Table 7, designed based on BTK inhibitors; 96 h
Experimental: as §2, §3

[7] = tested on: Hep3B2.7-1; assay: CCK-8 tumor cell proliferation, Hep3B2.7-1; type: cell-based, Human; settings: Homo sapiens
Experimental: as §2, §3

[8] = tested on: CAL-62; assay: CCK-8 tumor cell proliferation, CAL-62; type: cell-based, Human; settings: Homo sapiens, CAL-62, read-out: IC50 inhibiting proliferation of tumor cells, CAL-62
Procedure, shortened: as §1

[9] = tested on: SW620; assay: CCK-8 tumor cell proliferation, SW620; type: cell-based, Human; settings: Homo sapiens, SW-620, SW620, read-out: IC50 inhibiting proliferation of tumor cells, SW620
Procedure, shortened: as §1

[10] = tested on: MM.1S; assay: CCK-8 tumor cell proliferation, MM.1S; type: cell-based; settings: Homo sapiens, MM1.S; Table 18, FAK inhibitor based; MM.1S; read-out: IC50 inhibiting proliferation of tumor cells, MM.1S
Procedure, shortened: as §1

[11] = tested on: LNcap; assay: CCK-8 tumor cell proliferation, LNcap; type: cell-based, Human; settings: Homo sapiens; Table 19, IRAK4 inhibitor based; Lncap; read-out: IC50 inhibiting proliferation of tumor cells, Lncap
Experimental: as §2, §3

[12] = tested on: Jurkat; assay: CCK-8 tumor cell proliferation, Jurkat; type: cell-based, Human; settings: Homo sapiens, Table 19, IRAK4 inhibitor based, read-out: IC50 inhibiting proliferation of tumor cells, Jurkat
Procedure, shortened: as §1

[13] = tested on: Kasumi-1; assay: CCK-8 tumor cell proliferation, Kasumi-1; type: cell-based, Human; settings: Homo sapiens; Table 19, IRAK4 inhibitor based; Kasumi-1; read-out: IC50 inhibiting proliferation of tumor cells, Kasumi-1
Experimental: as §2, §3

[14] = Table 7, designed based on BTK inhibitors, 96 h
[15] = Table 19, IRAK4 inhibitor based
[16] = Table 19, IRAK4 inhibitor based, Hep3B2.7-1, read-out: IC50 inhibiting proliferation of tumor cells, Hep3B2.7-1

Structure (SMILES): Cc1cc(Nc2ncc(Cl)c(Nc3ccccc3S(=O)(=O)C(C)C)n2)c(OC(C)C)cc1N1CCC(N(C)Cc2ccc3c(c2)CN(C2CCC(=O)NC2=O)C3=O)CC1 (stereo not shown) [GT-03530, 3-(5-(((1-(4-((5-chloro-4-((2-(isopropylsulfonyl)phenyl)amino)pyrimidin-2-yl)amino)-5-isopropoxy-2-methylphenyl)piperidin-4-yl)(methyl)amino)methyl)-1-oxoisoindolin-2-yl)piperidine-2,6-dione]
IC50 [1]: 500 to 1000 nM
IC50 [2]: 1000 to 5000 nM
IC50 [3]: 500 to 1000 nM
IC50 [4]: < 50 nM

Structure (SMILES): CNC(=O)c1ccccc1Nc1cc(Nc2cc(C)c(C3CCN(Cc4ccc5c(c4)CN(C4CCC(=O)NC4=O)C5=O)CC3)cc2OC(C)C)ncc1C(F)(F)F (stereo not shown) [GT-04078, 2-((2-((4-(1-((2-(2,6-dioxopiperidin-3-yl)-1-oxoisoindolin-5-yl)methyl)piperidin-4-yl)-2-isopropoxy-5-methylphenyl)amino)-5-(trifluoromethyl)pyridin-4-yl)amino)-N-methylbenzamide]
IC50 ([7]; Table 18, FAK inhibitor based, HEP3B2.7-1, read-out: IC50 inhibiting proliferation of tumor cells, HEP3B2.7-1): < 50 nM
IC50 ([8]; Table 18, FAK inhibitor based): < 50 nM
IC50 ([5]; Table 18, FAK inhibitor based): < 50 nM
IC50 ([9]; Table 18, FAK inhibitor based): 100 to 500 nM
IC50 [10]: < 50 nM

Structure (SMILES): O=C1CCC(N2C(=O)c3ccc(CN4CCC(n5cc(NC(=O)c6coc(-c7ccnc(NCC(F)(F)F)c7)n6)c(C(F)F)n5)CC4)cc3C2=O)C(=O)N1 (stereo not shown) [GT-04088, N-(3-(difluoromethyl)-1-(1-((2-(2,6-dioxopiperidin-3-yl)-1,3-dioxoisoindolin-5-yl)methyl)piperidin-4-yl)-1H-pyrazol-4-yl)-2-(2-((2,2,2-trifluoroethyl)amino)pyridin-4-yl)oxazole-4-carboxamide]
IC50 [8, 15]: < 50 nM
IC50 [11]: 100 to 500 nM
IC50 [5, 15]: < 50 nM
IC50 [9, 15]: 100 to 500 nM
IC50 [12]: < 50 nM

Structure (SMILES): O=C1CCC(N2Cc3cc(CN4CCN(c5ccc(-n6cc(NC(=O)c7coc(-c8ccnc(NCC(F)(F)F)c8)n7)c(C(F)F)n6)cc5)CC4)cc(F)c3C2=O)C(=O)N1 (stereo not shown) [GT-04270, N-(3-(difluoromethyl)-1-(4-(4-((2-(2,6-dioxopiperidin-3-yl)-7-fluoro-1-oxoisoindolin-5-yl)methyl)piperazin-1-yl)phenyl)-1H-pyrazol-4-yl)-2-(2-((2,2,2-trifluoroethyl)amino)pyridin-4-yl)oxazole-4-carboxamide]
IC50 [7, 16]: 500 to 1000 nM
IC50 [13]: 100 to 500 nM
IC50 [12]: 100 to 500 nM

Structure (SMILES): CC(C)(O)c1cc2nc(C3CCN(Cc4cc5c(cc4F)C(=O)N(C4CCC(=O)NC4=O)C5)CC3)sc2cc1NC(=O)c1cccc(C(F)(F)F)n1 (stereo not shown) [GT-04506, N-(2-(1-((2-(2,6-dioxopiperidin-3-yl)-6-fluoro-1-oxoisoindolin-5-yl)methyl)piperidin-4-yl)-5-(2-hydroxypropan-2-yl)benzo[d]thiazol-6-yl)-6-(trifluoromethyl)picolinamide]
IC50 [11]: 100 to 500 nM
IC50 [5, 15]: 100 to 500 nM
IC50 [12]: 50 to 100 nM

The next lines start with the values.

IC50 [1]: 1000 to 5000 nM
IC50 [2]: 1000 to 5000 nM
IC50 [3]: 1000 to 5000 nM
IC50 [4]: 50 to 100 nM
Structure (SMILES): C[C@@H](Oc1cc(-c2cnn(C3CCN(Cc4ccc5c(c4)CN(C4CCC(=O)NC4=O)C5=O)CC3)c2)cnc1N)c1c(Cl)ccc(F)c1Cl (stereo partly drawn) [GT-02974, 3-(5-((4-(4-(6-amino-5-((R)-1-(2,6-dichloro-3-fluorophenyl)ethoxy)pyridin-3-yl)-1H-pyrazol-1-yl)piperidin-1-yl)methyl)-1-oxoisoindolin-2-yl)piperidine-2,6-dione]

IC50 for inhibiting the proliferation of tumor cells, CCRF-CEM [5, 14]: A+
IC50 for inhibiting the proliferation of tumor cells, NCI-H1975 [2, 14]: A+
IC50 for inhibiting the proliferation of tumor cells, Vcap [6]: A+
Structure (SMILES): Nc1ncnc2c1c(-c1ccc(Oc3ccccc3)cc1)nn2C1CCN(Cc2cc(F)c3c(c2)CN(C2CCC(=O)NC2=O)C3=O)CC1 (stereo not shown) [GT-03473, 3-(5-((4-(4-amino-3-(4-phenoxyphenyl)-1H-pyrazolo[3,4-d]pyrimidin-1-yl)piperidin-1-yl)methyl)-7-fluoro-1-oxoisoindolin-2-yl)piperidine-2,6-dione]

IC50 [8, 15]: 1000 to 5000 nM
IC50 [11]: 100 to 500 nM
IC50 [5, 15]: 1000 to 5000 nM
IC50 [9, 15]: 1000 to 5000 nM
IC50 [12]: 500 to 1000 nM
Structure (SMILES): O=C1CCC(N2Cc3c(CN4CCC(n5cc(NC(=O)c6coc(-c7ccnc(NCC8CC8)c7)n6)c(C(F)F)n5)CC4)cccc3C2=O)C(=O)N1 (stereo not shown) [GT-04173, 2-(2-((cyclopropylmethyl)amino)pyridin-4-yl)-N-(3-(difluoromethyl)-1-(1-((2-(2,6-dioxopiperidin-3-yl)-1-oxoisoindolin-4-yl)methyl)piperidin-4-yl)-1H-pyrazol-4-yl)oxazole-4-carboxamide]

IC50 [8, 15]: < 50 nM
IC50 [11]: 500 to 1000 nM
IC50 [5, 15]: < 50 nM
IC50 [9, 15]: 100 to 500 nM
IC50 [12]: 50 to 100 nM
Structure (SMILES): O=C1CCC(N2C(=O)c3ccc(CN4CCC(n5cc(NC(=O)c6coc(-c7ccnc(NCC8CC8)c7)n6)c(C(F)F)n5)CC4)cc3C2=O)C(=O)N1 (stereo not shown) [GT-04174, 2-(2-((cyclopropylmethyl)amino)pyridin-4-yl)-N-(3-(difluoromethyl)-1-(1-((2-(2,6-dioxopiperidin-3-yl)-1,3-dioxoisoindolin-5-yl)methyl)piperidin-4-yl)-1H-pyrazol-4-yl)oxazole-4-carboxamide]

IC50 [7, 16]: 100 to 500 nM
IC50 [13]: 100 to 500 nM
IC50 [12]: 500 to 1000 nM
Structure (SMILES): O=C1CCC(N2Cc3cc(CN4CCN(c5ccc(-n6cc(NC(=O)c7coc(-c8ccnc(NCC(F)(F)F)c8)n7)c(C(F)F)n6)cc5)CC4)ccc3C2=O)C(=O)N1 (stereo not shown) [GT-04267, N-(3-(difluoromethyl)-1-(4-(4-((2-(2,6-dioxopiperidin-3-yl)-1-oxoisoindolin-5-yl)methyl)piperazin-1-yl)phenyl)-1H-pyrazol-4-yl)-2-(2-((2,2,2-trifluoroethyl)amino)pyridin-4-yl)oxazole-4-carboxamide]

IC50 [7, 16]: 500 to 1000 nM
IC50 [13]: 100 to 500 nM
IC50 [12]: 500 to 1000 nM
Structure (SMILES): O=C1CCC(N2Cc3c(ccc(CN4CCN(c5ccc(-n6cc(NC(=O)c7coc(-c8ccnc(NCC(F)(F)F)c8)n7)c(C(F)F)n6)cc5)CC4)c3F)C2=O)C(=O)N1 (stereo not shown) [GT-04268, N-(3-(difluoromethyl)-1-(4-(4-((2-(2,6-dioxopiperidin-3-yl)-4-fluoro-1-oxoisoindolin-5-yl)methyl)piperazin-1-yl)phenyl)-1H-pyrazol-4-yl)-2-(2-((2,2,2-trifluoroethyl)amino)pyridin-4-yl)oxazole-4-carboxamide]
